Active and inactive are the calls of the source.
How the values were obtained:
[1] = test system: Vero; assay: mammalian cell viability reduction – secondary assay, cytotoxicity control for West Nile virus antiviral project, dose response (AID 1650); format: functional; conditions: Chlorocebus sabaeus
[2] = viability of uninfected HEp-2 cells – cell-based, HTS, cytotoxicity control for RSV inhibitor project, dose response (AID 2410); format: functional; conditions: human respiratory syncytial virus
[3] = cells; format: functional
[4] = Vero E6 cell cytotoxicity, dose response, cytotoxicity control for non-replicating M. tuberculosis project, secondary assay (AID 492998); format: functional, VeroE6; conditions: Vero C1008
[5] = THP-1 cell cytotoxicity, dose response, cytotoxicity control for non-replicating M. tuberculosis project (AID 489025); format: functional
[6] = molecular target: T1, Tyrosine-protein phosphatase non-receptor type 7 (Homo sapiens, UniProt P35236); assay: HePTP tyrosine phosphatase activity blockers – biochemical, absorbance, leukemia target, primary screen (AID 521); format: functional
T1 sequence (P35236 whole entry): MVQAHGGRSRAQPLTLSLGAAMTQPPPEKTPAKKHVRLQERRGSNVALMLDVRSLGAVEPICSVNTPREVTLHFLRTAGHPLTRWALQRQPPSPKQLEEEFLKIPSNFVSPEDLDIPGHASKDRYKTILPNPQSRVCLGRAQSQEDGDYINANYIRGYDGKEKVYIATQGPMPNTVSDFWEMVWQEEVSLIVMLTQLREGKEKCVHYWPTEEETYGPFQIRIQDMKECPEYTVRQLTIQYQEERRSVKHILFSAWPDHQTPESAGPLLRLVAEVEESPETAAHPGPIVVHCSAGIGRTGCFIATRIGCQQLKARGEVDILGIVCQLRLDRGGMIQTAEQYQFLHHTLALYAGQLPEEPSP

[7] = A Cell Based Secondary Assay To Explore Cytotoxicity of Compounds that Sensitize Mycobacterium Tuberculosis to Beta-Lactam Antibiotics.; format: functional
[8] = toxicity to human HepG2 hepatoma cells – cell-based, plate reader, dry powder samples, cytotoxicity control, dose response (AID 1159569); format: functional;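 also: inhibitor potency with signal falling toward the positive control level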
[9] = Plasmodium falciparum Dd2 Sybr green parasite growth Measured in Cell-Based and Microorganism Combination System Using Plate Reader - 2153-01_Inhibitor_Dose_DryPowder_Activity_Set3.; format: functional
[10] = P. falciparum Dd2 growth inhibitors, dose response, SYBR Green, cherry-picked samples (AID 1159567); format: functional, cell-based
[11] = Dd2 malaria parasite growth inhibition potency – SYBR Green, dry powder samples, dose response (AID 1159566); format: functional, cell-based;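 also: potency for growth inhibition with lower SYBR green DNA signal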
[12] = growth inhibition of PfATP4-mutant resistant parasites – NITD609-resistant line, SYBR Green, dry powder, dose response (AID 1159571); format: functional, cell-based;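 also: parasites synchronized at ring stage by sorbitol before testing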
[13] = growth inhibition of yeast DHODH-expressing 3D7 parasites – SYBR Green, dry powder samples, dose response (AID 1159570); format: functional, cell-based;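 also: parasite growth measured after 72 hours of compound exposure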
[14] = Luminescence Cell-Based Dose Response HTS to Identify Inhibitors of 5'UTR Stem-Loop Driven Prion Protein mRNA Translation in H4 Neuroglioblastoma Cells. [Related pubchem assays: 1827 (Project Summary), 1813 (Primary HTS)]; format: functional
[15] = alpha-synuclein stem-loop luciferase translation blockers – H4 neuroglioma cells, luminescence, confirmation (AID 1988); format: functional, cell-based
[16] = luciferase reporter signal suppression in cells – H4 neuroglioma cells, luminescence, dose response (AID 1990); format: functional, cell-based
[17] = NIH3T3 cell viability loss – ATP luminescence, mouse fibroblasts, counter-screen, dose response (AID 2010); format: functional, cell-based;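 also: cells exposed to compound for about 90 hours before reading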
[18] = Trypanosoma cruzi growth suppression in host cells – NIH3T3 host cells, beta-gal luminescence, confirmation (AID 2044); format: functional, cell-based;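 also: intracellular parasites grown in NIH/3T3 mouse fibroblasts as host cells; luminescent beta-galactosidase reporter signal from transgenic T. cruzi replicating inside host cells; inhibitors lower the luminescence signal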
[19] = viability loss in Vero cells – cytotoxicity control for Vif-APOBEC3G degradation inhibitor project, dose response (AID 1117358); format: functional; conditions: Vero
[20] = molecular target: Photoreceptor-specific nuclear receptor (Homo sapiens, UniProt Q9Y5X4); assay: ligands suppressing NR2E3 nuclear receptor activity – biochemical, TR-FRET, dose response (AID 463256); format: functional
[21] = molecular target: Peroxisome proliferator-activated receptor gamma/Nuclear receptor corepressor 2 (Homo sapiens, UniProt P37231+Q9Y618); assay: Counterscreen for NR2E3 inverse agonists: TR-FRET-based biochemical high throughput dose response assay to identify inverse agonists of the interaction between peroxisome proliferator-activated receptor gamma (PPARg) and nuclear receptor co-repressor 2 (NCOR2).; format: functional
[22] = test system: HEK293; assay: cells; conditions: Homo sapiens
[23] = molecular target: Cytochrome P450 2C9 (Homo sapiens, UniProt P11712)
[24] = test system: HEK293; assay: cells; conditions: Homo sapiens; remark: listed apart in the source
[25] = molecular target: Cytochrome P450 3A4 (Homo sapiens, UniProt P08684);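 also: CYP3A4 tested as one member of a cytochrome P450 panel screen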
[26] = molecular target: Cytochrome P450 2C19 (Homo sapiens, UniProt P33261); assay: Cytochrome panel assay with activity outcomes. Panel member name: p450-cyp2c19 Compounds with AC50 equal or less than 10 uM are considered active; format: functional; conditions: read-out: AC50
[27] = Single fluorophore orthopox expression reporter, late gene expression Measured in Cell-Based and Microorganism Combination System Using Plate Reader - 2142-08_Inhibitor_Dose_DryPowder_Activity.; format: functional
[28] = inhibitors of orthopox intermediate gene expression, dose response, cell-based, single fluorophore reporter, dry powder (AID 1117271); format: functional
[29] = lung carcinoma cell viability loss – CellTiter-Glo luminescence, dry powder, set 17, dose response (AID 1117284); format: functional, cell-based; conditions: A549
[30] = cells
[31] = molecular target: DNA dC->dU-editing enzyme APOBEC-3G (Homo sapiens, UniProt Q9HC16); format: functional;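 also: Dose-response counterscreen measuring inhibition of APOBEC3G DNA deaminase activity, run while confirming APOBEC3A inhibitors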
[32] = molecular target: T2, Bcl-2-related protein A1 (Mus musculus, UniProt Q07440); assay: displacement of Bid BH3 peptide from Bfl-1 – biochemical, fluorescence polarization, FITC-Bid, mouse, primary screen (AID 432)
T2 sequence (Q07440 whole entry): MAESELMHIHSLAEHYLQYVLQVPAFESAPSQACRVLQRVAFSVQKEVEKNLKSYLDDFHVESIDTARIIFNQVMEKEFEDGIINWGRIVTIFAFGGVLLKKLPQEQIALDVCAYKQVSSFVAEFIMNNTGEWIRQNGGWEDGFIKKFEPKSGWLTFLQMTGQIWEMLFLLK

[33] = molecular target: T3, Dual specificity protein phosphatase 6 (Rattus norvegicus, UniProt Q64346); assay: inhibition of rat DUSP6 enzyme activity – biochemical, in vitro, primary screen (AID 425)
T3 sequence (Q64346 whole entry): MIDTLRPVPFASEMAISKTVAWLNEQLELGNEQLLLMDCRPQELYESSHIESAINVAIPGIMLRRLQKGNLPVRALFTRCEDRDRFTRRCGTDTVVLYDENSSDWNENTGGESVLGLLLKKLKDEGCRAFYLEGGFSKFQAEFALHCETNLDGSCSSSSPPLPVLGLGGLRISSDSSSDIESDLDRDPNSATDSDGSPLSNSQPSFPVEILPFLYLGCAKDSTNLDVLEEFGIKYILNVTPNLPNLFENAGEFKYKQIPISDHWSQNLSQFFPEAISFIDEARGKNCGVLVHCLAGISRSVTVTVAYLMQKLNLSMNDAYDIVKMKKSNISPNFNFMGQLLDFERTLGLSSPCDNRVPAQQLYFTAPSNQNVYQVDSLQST

[34] = molecular target: DNA dC->dU-editing enzyme APOBEC-3A (Homo sapiens, UniProt P31941); assay: Dose Response confirmation of small molecule APOBEC3A DNA Deaminase Inhibitors via a fluorescence-based single-stranded DNA deaminase assay. [Related pubchem assays (depositor defined):AID493011, AID493024]; format: functional
[35] = molecular target: T4, Bcl-2-like protein 10 (Homo sapiens, UniProt Q9HD36); assay: Bcl-B/TR3 peptide binding disruption – biochemical, fluorescence polarization, FITC-TR3 peptide, selectivity assay for Bfl-1 inhibitor project, primary screen (AID 748);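 also: fluorescence polarization from a fluorescein-labelled TR3 peptide binding purified Bcl-B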
T4 sequence (Q9HD36 whole entry): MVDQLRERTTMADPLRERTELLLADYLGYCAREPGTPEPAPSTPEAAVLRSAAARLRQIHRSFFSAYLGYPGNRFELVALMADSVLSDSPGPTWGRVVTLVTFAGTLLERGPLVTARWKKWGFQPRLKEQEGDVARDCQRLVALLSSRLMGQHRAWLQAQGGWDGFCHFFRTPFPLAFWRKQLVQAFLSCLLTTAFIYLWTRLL

[36] = molecular target: Voltage-dependent T-type calcium channel subunit alpha-1H (Homo sapiens, UniProt O95180); format: functional;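 also: channel activity triggered by adding a high calcium stimulation buffer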
[37] = molecular target: Ephrin type-A receptor 4 (Mus musculus, UniProt Q03137); assay: EphA4 ligand-binding antagonists – biochemical, colorimetric, mouse EphA4, primary screen (AID 689); format: functional
[38] = molecular target: T5, RNA-binding protein pos-1 (Caenorhabditis elegans, UniProt G5EF15); assay: disruptors of C. elegans POS-1 RNA interaction – biochemical, fluorescence polarization, dose response (AID 1964);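 also: purified POS-1 fused to maltose binding protein made in E. coli; potency of compounds blocking POS-1 binding to fluorescent RNA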
T5 sequence (G5EF15 whole entry): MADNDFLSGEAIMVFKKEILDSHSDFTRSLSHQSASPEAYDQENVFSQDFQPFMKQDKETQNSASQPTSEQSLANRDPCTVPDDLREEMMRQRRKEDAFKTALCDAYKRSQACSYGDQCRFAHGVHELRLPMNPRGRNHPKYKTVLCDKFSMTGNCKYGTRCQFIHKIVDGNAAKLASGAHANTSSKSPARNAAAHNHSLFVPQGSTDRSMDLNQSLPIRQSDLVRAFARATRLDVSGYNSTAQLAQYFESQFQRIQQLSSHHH

[39] = molecular target: T6, Zinc finger protein mex-5 (Caenorhabditis elegans, UniProt Q9XUB2); assay: potency of MEX-5 RNA-binding blockers – biochemical, C. elegans, fluorescence polarization, dose response (AID 1960)
T6 sequence (Q9XUB2 whole entry): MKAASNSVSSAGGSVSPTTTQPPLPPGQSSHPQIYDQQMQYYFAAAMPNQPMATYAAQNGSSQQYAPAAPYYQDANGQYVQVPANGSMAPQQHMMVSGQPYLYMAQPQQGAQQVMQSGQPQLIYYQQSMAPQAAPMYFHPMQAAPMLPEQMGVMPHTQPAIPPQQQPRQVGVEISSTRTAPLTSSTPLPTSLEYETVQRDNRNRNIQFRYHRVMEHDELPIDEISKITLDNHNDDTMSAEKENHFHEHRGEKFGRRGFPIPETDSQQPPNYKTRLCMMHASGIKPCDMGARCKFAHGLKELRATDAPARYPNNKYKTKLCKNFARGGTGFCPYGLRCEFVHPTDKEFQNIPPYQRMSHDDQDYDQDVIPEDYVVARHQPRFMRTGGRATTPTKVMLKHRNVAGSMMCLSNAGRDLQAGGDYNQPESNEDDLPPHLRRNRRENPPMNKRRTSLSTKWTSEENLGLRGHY

Chain of Peroxisome proliferator-activated receptor gamma/Nuclear receptor corepressor 2 (P37231 whole entry): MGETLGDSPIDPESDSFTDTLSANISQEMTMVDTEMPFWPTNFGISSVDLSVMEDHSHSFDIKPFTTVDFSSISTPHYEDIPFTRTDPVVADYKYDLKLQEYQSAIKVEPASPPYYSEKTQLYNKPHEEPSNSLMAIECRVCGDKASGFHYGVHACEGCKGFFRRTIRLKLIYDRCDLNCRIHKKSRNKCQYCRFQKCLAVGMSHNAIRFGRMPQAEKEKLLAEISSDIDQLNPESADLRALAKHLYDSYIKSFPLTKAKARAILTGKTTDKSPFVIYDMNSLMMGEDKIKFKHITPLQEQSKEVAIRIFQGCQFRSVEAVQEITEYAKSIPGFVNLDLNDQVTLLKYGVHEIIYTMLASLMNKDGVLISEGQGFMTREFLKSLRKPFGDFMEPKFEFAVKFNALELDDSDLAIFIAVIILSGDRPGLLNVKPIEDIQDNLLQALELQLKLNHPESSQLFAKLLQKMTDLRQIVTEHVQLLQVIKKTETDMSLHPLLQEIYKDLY
Chain of Peroxisome proliferator-activated receptor gamma/Nuclear receptor corepressor 2 (Q9Y618 whole entry): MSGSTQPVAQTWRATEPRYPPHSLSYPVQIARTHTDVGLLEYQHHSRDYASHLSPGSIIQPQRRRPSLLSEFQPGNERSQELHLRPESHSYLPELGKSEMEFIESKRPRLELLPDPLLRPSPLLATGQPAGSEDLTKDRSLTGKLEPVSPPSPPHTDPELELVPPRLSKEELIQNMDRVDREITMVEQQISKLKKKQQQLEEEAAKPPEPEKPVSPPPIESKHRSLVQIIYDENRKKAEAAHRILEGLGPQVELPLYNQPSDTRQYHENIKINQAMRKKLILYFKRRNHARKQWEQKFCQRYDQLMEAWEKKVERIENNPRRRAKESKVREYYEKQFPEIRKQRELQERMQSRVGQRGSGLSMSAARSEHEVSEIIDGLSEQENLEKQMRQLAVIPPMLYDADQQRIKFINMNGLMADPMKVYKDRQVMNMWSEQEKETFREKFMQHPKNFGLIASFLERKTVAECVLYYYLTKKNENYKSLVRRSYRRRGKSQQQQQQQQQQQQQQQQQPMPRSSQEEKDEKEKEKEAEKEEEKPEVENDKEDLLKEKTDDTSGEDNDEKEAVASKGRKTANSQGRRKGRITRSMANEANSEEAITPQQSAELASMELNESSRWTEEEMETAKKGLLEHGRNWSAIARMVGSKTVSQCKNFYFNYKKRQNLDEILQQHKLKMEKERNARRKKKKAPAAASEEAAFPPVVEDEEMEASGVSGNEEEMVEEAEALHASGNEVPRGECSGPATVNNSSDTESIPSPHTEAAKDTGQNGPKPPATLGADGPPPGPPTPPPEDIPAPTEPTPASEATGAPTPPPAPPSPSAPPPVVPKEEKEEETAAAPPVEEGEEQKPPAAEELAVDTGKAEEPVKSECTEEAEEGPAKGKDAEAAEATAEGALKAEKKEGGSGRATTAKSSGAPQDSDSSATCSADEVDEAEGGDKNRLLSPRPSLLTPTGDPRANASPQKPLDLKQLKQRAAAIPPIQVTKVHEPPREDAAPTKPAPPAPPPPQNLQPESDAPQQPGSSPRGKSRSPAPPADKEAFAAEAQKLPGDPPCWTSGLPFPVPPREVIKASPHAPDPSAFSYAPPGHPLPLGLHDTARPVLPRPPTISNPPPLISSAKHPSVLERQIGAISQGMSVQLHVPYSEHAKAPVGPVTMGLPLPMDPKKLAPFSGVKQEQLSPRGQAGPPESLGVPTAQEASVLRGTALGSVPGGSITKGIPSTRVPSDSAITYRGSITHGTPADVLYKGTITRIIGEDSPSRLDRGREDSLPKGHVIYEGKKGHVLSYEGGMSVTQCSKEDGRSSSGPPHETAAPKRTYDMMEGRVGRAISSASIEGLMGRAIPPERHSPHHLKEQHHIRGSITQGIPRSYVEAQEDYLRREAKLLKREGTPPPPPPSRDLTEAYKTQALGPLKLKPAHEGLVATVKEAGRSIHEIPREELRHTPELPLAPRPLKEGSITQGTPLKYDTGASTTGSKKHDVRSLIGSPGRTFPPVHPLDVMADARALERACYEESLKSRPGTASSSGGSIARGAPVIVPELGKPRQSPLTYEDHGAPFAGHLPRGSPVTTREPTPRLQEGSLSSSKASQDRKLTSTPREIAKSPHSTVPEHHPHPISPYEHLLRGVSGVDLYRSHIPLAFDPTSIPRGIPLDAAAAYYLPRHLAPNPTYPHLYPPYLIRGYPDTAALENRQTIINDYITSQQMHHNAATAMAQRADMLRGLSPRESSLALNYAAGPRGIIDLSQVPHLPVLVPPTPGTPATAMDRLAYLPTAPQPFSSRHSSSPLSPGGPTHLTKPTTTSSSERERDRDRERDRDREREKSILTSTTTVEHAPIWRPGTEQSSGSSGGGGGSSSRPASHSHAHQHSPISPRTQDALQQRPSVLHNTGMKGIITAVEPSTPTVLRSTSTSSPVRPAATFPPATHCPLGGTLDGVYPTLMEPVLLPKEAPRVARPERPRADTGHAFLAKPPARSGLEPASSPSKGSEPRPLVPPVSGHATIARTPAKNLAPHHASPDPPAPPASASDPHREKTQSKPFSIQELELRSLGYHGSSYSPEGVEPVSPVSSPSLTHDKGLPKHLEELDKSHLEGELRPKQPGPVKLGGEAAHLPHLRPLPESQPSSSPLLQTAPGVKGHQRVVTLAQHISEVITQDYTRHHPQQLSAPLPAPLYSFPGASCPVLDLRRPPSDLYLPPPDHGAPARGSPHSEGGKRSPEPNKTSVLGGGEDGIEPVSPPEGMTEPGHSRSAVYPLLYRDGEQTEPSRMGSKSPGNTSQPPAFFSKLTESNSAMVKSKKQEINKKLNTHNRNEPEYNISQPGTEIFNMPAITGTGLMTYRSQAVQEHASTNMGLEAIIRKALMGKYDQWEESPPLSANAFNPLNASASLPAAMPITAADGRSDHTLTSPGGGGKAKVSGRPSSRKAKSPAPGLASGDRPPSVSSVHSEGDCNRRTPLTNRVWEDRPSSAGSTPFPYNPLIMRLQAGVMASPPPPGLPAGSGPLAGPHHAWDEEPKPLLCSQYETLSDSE
Chain of DNA dC->dU-editing enzyme APOBEC-3G (Q9HC16 whole entry): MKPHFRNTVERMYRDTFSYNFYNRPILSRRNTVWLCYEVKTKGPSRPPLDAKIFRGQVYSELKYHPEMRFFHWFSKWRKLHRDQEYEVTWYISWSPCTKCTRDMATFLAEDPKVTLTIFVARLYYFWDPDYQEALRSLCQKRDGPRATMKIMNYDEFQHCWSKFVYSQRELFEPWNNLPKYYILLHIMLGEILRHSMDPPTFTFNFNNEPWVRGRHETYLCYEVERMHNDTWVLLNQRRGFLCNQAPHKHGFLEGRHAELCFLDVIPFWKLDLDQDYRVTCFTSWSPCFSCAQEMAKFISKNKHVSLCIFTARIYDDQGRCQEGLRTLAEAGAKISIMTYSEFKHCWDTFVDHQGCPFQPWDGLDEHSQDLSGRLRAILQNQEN
Chain of Cytochrome P450 2C9 (P11712 whole entry): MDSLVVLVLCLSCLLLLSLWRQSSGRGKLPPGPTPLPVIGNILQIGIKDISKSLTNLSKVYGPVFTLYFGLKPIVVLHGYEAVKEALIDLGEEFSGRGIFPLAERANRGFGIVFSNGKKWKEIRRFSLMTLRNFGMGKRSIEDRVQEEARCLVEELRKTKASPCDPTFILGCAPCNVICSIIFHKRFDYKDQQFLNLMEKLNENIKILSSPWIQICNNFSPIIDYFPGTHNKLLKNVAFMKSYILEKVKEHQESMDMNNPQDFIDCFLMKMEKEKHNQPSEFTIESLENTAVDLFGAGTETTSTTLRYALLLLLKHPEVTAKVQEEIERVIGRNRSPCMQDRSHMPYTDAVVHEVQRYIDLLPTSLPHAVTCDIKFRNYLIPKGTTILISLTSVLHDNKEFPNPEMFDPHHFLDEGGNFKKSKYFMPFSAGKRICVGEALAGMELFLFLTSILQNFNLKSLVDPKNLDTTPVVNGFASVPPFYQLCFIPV
Chain of Cytochrome P450 2C19 (P33261 whole entry): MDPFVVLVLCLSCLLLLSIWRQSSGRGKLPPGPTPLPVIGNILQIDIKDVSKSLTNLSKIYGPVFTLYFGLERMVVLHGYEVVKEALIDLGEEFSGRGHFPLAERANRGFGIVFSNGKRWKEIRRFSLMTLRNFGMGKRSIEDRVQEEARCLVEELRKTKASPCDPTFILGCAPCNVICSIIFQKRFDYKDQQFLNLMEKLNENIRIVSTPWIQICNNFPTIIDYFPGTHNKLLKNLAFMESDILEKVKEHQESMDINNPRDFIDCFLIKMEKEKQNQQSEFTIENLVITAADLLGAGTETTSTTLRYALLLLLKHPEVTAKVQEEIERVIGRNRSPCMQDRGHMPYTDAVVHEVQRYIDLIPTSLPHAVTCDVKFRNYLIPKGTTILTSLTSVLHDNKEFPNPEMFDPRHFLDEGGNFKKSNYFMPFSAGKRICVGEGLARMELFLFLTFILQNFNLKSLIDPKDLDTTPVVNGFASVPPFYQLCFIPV
Chain of DNA dC->dU-editing enzyme APOBEC-3A (P31941 whole entry): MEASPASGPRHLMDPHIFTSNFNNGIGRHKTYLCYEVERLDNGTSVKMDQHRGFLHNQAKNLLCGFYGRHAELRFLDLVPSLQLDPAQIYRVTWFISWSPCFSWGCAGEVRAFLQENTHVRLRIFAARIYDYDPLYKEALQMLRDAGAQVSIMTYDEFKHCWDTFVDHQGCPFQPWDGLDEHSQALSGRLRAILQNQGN
Chain of Photoreceptor-specific nuclear receptor (Q9Y5X4 whole entry): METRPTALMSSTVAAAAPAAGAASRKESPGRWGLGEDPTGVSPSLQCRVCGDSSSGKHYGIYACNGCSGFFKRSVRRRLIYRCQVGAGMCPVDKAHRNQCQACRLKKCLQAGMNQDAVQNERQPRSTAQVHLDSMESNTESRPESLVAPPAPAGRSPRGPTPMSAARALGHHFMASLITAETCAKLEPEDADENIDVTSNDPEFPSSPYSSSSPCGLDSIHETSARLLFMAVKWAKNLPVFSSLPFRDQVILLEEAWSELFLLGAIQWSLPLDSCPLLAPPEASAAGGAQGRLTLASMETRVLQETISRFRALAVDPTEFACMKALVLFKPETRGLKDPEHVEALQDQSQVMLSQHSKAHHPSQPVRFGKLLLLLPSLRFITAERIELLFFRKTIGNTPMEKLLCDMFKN

NCCOc1ccc(C23CC4CC(CC(C4)C2)C3)cc1
CC50 [1]: 10.7 µM (active) | CC50 [2]: 13.1 µM (active) | IC50 [3]: 23.4 µM (active) | CC50 [4]: > 20 µM (active) | CC50 [5]: 11.4 µM (active)

CCc1ccccc1NC(=O)CN(C)Cc1nc(N)nc(Nc2ccccc2C)n1
IC50 [6]: > 100 µM (not active)

Cc1ccc(-c2nc3ccccc3o2)cc1NC(=S)NC(=O)/C=C/c1ccco1
CC50 [7]: 32.9 µM (active)

CO[C@@H]1CN(C)C(=O)c2ccc(NC(=O)C3CC3)cc2OC[C@@H](C)N(Cc2cccc(F)c2)C[C@H]1C
AC50 [8]: > 100 µM (inactive) | AC50 [9]: 4.29 µM (active) | AC50 [10]: 2.98 µM (active) | AC50 [11]: 0.664 µM (active) | AC50 [12]: 3.64 µM (active) | AC50 [13]: 6.86 µM (active)

O=C(Nc1ccc(O)c2c(=O)cc(-c3cccc(Cl)c3)oc12)c1cccc(Cl)c1
EC50 [14]: > 120 µM (not active) | CC50 [1]: 0.83 µM (active) | EC50 [15]: 10.2 µM (active) | EC50 [16]: > 120 µM (not active)

CCC1Nc2ncnc(N3CCN(c4ccccc4)CC3)c2N(Cc2ccc(Br)cc2)C1=O (centres undefined)
EC50 [17]: > 60 µM (not active) | EC50 [18]: 1.59 µM (active) | CC50 [7]: > 40 µM (active)

N#Cc1nc(Cc2cccc3ccccc23)oc1NCc1ccc(F)cc1
CC50 [19]: > 40 µM (active)

CCOc1ccc(C(=O)Nc2ccc(NC(=O)c3ccco3)c(Cl)c2)cc1Br
IC50 [20]: > 39.8 µM (not active) | IC50 [21]: > 39.8 µM (not active) | EC50 [22]: > 59.7 µM (inactive) | AC50 [23]: 0.562 µM (inconclusive) | EC50 [24]: > 59.7 µM (inactive) | AC50 [25]: 22.4 µM (inconclusive) | AC50 [26]: 0.398 µM (inconclusive)

O=C(CN1CCN(S(=O)(=O)c2ccc(Cl)s2)CC1)NCc1ccc(Cl)cc1
CC50 [19]: 15.1 µM (active)

C[C@@H](O)C#Cc1ccc2c(c1)O[C@@H](CN(C)Cc1ccc(-c3ccc(Cl)cc3)cc1)[C@@H](C)CN([C@@H](C)CO)S2(=O)=O
AC50 [27]: 1.26 µM (active) | AC50 [28]: 1.29 µM (active) | AC50 [29]: 33.4 µM (active)

Cc1cccc2nc(COc3ccc(Cl)c4cccnc34)cn12
IC50 [30]: 33.2 µM (active)

CCn1c(SCC(=O)O)nc2sc3c(c2c1=O)CCC3
IC50 [31]: 40.8 µM (active) | IC50 [32]: 14.5 µM (active) | IC50 [33]: > 10 µM (not active) | IC50 [6]: 1.29 µM (active) | IC50 [34]: 17.5 µM (active) | IC50 [35]: 8.5 µM (active)

Cc1ccc2cc(/C=C3\N=C(c4ccccc4)OC3=O)c(N3CCOCC3)nc2c1
EC50 [36]: 10.8 µM (active) | IC50 [37]: 1.54 µM (active) | EC50 [38]: > 300 µM (not active) | EC50 [39]: > 300 µM (inconclusive)

C/C=C/c1ccc([C@H]2[C@@H](C#N)N(C(=O)NC3CCCC3)[C@@H]2CO)cc1
AC50 [9]: 0.719 µM (active) | AC50 [10]: 1.02 µM (active) | AC50 [11]: 0.4 µM (active) | AC50 [12]: 0.626 µM (active) | AC50 [13]: 15.4 µM (active)

c1ccc(N2CCN(Cc3nc4ccccc4[nH]3)CC2)nc1 [ABT-724]
IC50 [30]: 24 µM (active)

From ChEMBL document CHEMBL1201862, “PubChem BioAssay data set” (2004)
